The values that follow come from patent publication US7498326B2, “Compounds” (Glaxo Group Limited, priority 2002, dated 2009).

The structures appear in SMILES notation. Counter-ions that a name gives are not always drawn.

The first assay in a line: MIC of test compounds against various organisms. The assay is classed as cell-based. The conditions noted are these: versus all these organisms: S. epidermidis CL7, S. aureus WCUH29, S. pneumoniae 1629, S. pyogenes CN10, H. influenzae ATCC 49247, E. faecalis 2, M. catarrhalis Ravasio, E. coli 7623. The protocol:
The MIC (μg/ml) of test compounds against various organisms was determined including: S. epidermidis CL7, S. aureus WCUH29, S. pneumoniae 1629, S. pyogenes CN10, H. influenzae ATCC 49247, E. faecalis 2, M. catarrhalis Ravasio, E. coli 7623. Examples 1, 5, 6, 7, 8, 11, 13 have an MIC≦2 μg/ml versus all these organisms.
Consider `COc1cnc2cccc(C(O)CN3CCC(NCc4ccc5c(n4)NC(=O)CS5)CC3)c2n1` (racemic) [Example 5, 6-{[(1-{(2R/S)-2-hydroxy-2-[3-(methyloxy)-5-quinoxalinyl]ethyl}-4-piperidinyl)amino]methyl}-2H-pyrido[3,2-b][1,4]thiazin-3(4H)-one dihydrochloride], for which the MIC is no more than 2 mg/L.

For the compound `N#Cc1ccc2nccc(CCN3CC[C@H](NCc4ccc5c(n4)NC(=O)CO5)[C@H](O)C3)c2c1` (stereo in doubt) [Example 12, 4-[2-(3-hydroxy-4-{[(3-oxo-3,4-dihydro-2H-pyrido[3,2-b][1,4]oxazin-6-yl)methyl]amino}-1-piperidinyl)ethyl]-6-quinolinecarbonitrile (E1 isomer)], the MIC is no more than 16 mg/L.

Take `N#Cc1ccc2nccc(CCN3CCC(NCc4ccc5c(n4)NC(=O)CO5)CC3)c2c1` [Example 1, 4-2-{4-[(3-Oxo-3,4-dihydro-2H-pyrido[3,2-b][1,4]oxazin-6-ylmethyl)-amino]-piperidin-1-yl}-ethyl)-quinoline-6-carbonitrile dihydrochloride]: the MIC is no more than 2 mg/L.

Regarding `O=C1CSc2ccc(CN[C@H]3CCN(CCc4ccnc5ccc6c(c45)OCCO6)C[C@H]3F)nc2N1` [Example 4, 6({(3R,4S)-1-[2-(2,3-Dihydro-[1,4]dioxino[2,3-f]quinolin-10-yl)-ethyl]-3-fluoro-piperidin-4-ylamino}-methyl)-4H-pyrido[3,2-b][1,4]thiazin-3-one], the MIC was no more than 16 mg/L.

With `COc1cnc2cccc(C(O)CN3CCC(NCc4cc5c(cn4)OCCO5)CC3)c2n1` (stereo not drawn) [Example 6, (1R/S)-2-{4-[(2,3-dihydro[1,4]dioxino[2,3-c]pyridin-7-ylmethyl)amino]1-1-piperidinyl}-1-[3-(methyloxy)-5-quinoxalinyl]ethanol dihydrochloride], the MIC is no more than 2 mg/L.

For `Clc1cnc2ccc3c(c2c1CCN1CCC(NCc2cc4c(cn2)OCCO4)CC1)OCCO3` [Example 7, {1-[2-(9-Chloro-2,3-dihydro-[1,4]dioxino[2,3-f]quinolin-10-yl)-ethyl]-piperidin-4-yl}-(2,3-dihydro-[1,4]dioxino[2,3-c]pyridin-7-ylmethyl)-amine dihydrochloride], the MIC was no more than 2 mg/L.

In the case of `COc1ccc2cccc(C(O)CN3CCC(NCc4ccc5c(n4)NC(=O)CO5)CC3)c2n1` (stereo not drawn) [Example 8, 6-{[(1-{2-hydroxy-2-[2-(methyloxy)-8-quinolinyl]ethyl}4-piperidinyl)amino]methyl}-2H-pyrido[3,2-b][1,4]oxazin-3(4H)-one], the MIC is no more than 2 mg/L.

For the compound `N#Cc1ccc2nccc(CCN3CC[C@H](NCc4ccc5c(n4)NC(=O)CS5)[C@H](O)C3)c2c1` [Example 11, 4-[2-(3-hydroxy-4-{([(3-oxo-3,4-dihydro-2H-pyrido[3,2-b][1,4]thiazin-6-yl)methyl]amino}-1-piperidinyl)ethyl]-6-quinolinecarbonitriledihydrochloride (E2 isomer)], the MIC was no more than 2 mg/L.

Staying with this assay, now noted: versus some of these organisms (which of the eight listed strains is not stated).
With `O=C1CSc2ccc(CNC3CCN(CCc4ccnc5ccccc45)CC3)nc2N1` [Example 9, 6-[({1-[2-(4-quinolinyl)ethyl]-4-piperidinyl}amino)methyl]-2H-pyrido[3,2-b][1,4]thiazin-3(4H)-one dihydrochloride], the MIC was no more than 16 mg/L.
